Measured values reported in PubChem BioAssay (NCI).
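All cell lines were grown in 96-well plates and treated with compound for 48 hours. GI50 marks 50% less growth. TGI: total growth inhibition.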

Assays:
Test in all cases: NCI anticancer screen, dose series, 48 h
786-0 renal = tested on: 786-0 renal
A498 renal = tested on: A498 renal
A549 NSCLC = tested on: A549 NSCLC
ACHN renal = tested on: ACHN renal
BT-549 breast = tested on: BT-549 breast
CAKI-1 renal = tested on: CAKI-1 renal
CCRF-CEM leukemia = tested on: CCRF-CEM leukemia
COLO 205 colon = tested on: COLO 205 colon
DU-145 prostate = tested on: DU-145 prostate
EKVX NSCLC = tested on: EKVX NSCLC
HCC-2998 colon = tested on: HCC-2998 colon
HCT-116 colon = tested on: HCT-116 colon
HCT-15 colon = tested on: HCT-15 colon
HL-60(TB) leukemia = tested on: HL-60(TB) leukemia
HOP-62 NSCLC = tested on: HOP-62 NSCLC
HOP-92 NSCLC = tested on: HOP-92 NSCLC
HS 578T breast = tested on: HS 578T breast
HT29 colon = tested on: HT29 colon
IGROV1 ovarian = tested on: IGROV1 ovarian
K-562 leukemia = tested on: K-562 leukemia
KM12 colon = tested on: KM12 colon
LOX IMVI melanoma = tested on: LOX IMVI melanoma
M14 melanoma = tested on: M14 melanoma
MALME-3M melanoma = tested on: MALME-3M melanoma
MCF7 breast = tested on: MCF7 breast
MDA-MB-231 breast = tested on: MDA-MB-231 breast
MDA-MB-435 = tested on: MDA-MB-435
MOLT-4 leukemia = tested on: MOLT-4 leukemia
NCI-H226 lung = tested on: NCI-H226 lung
NCI-H23 lung = tested on: NCI-H23 lung
NCI-H460 lung = tested on: NCI-H460 lung
NCI-H522 lung = tested on: NCI-H522 lung
NCI/ADR-RES ovarian = tested on: NCI/ADR-RES ovarian
OVCAR-3 ovarian = tested on: OVCAR-3 ovarian
OVCAR-4 ovarian = tested on: OVCAR-4 ovarian
OVCAR-5 ovarian = tested on: OVCAR-5 ovarian
OVCAR-8 ovarian = tested on: OVCAR-8 ovarian
PC-3 prostate = tested on: PC-3 prostate
RPMI-8226 leukemia = tested on: RPMI-8226 leukemia
RXF 393 renal = tested on: RXF 393 renal
SF-268 CNS = tested on: SF-268 CNS
SF-295 CNS = tested on: SF-295 CNS
SF-539 CNS = tested on: SF-539 CNS
SK-MEL-2 melanoma = tested on: SK-MEL-2 melanoma
SK-MEL-28 melanoma = tested on: SK-MEL-28 melanoma
SK-MEL-5 melanoma = tested on: SK-MEL-5 melanoma
SK-OV-3 ovarian = tested on: SK-OV-3 ovarian
SN12C renal = tested on: SN12C renal
SNB-19 CNS = tested on: SNB-19 CNS
SNB-75 CNS = tested on: SNB-75 CNS
SW-620 colon = tested on: SW-620 colon
T-47D breast = tested on: T-47D breast
TK-10 renal = tested on: TK-10 renal
U251 CNS = tested on: U251 CNS
UACC-257 melanoma = tested on: UACC-257 melanoma
UACC-62 melanoma = tested on: UACC-62 melanoma
UO-31 renal = tested on: UO-31 renal

COc1cc(/C=C/C(=O)c2cc(OC)c(OC)c(OC)c2)ccc1OCc1ccccc1
GI50 (786-0 renal): 4.71 µM | TGI (786-0 renal): > 100 µM | GI50 (A498 renal): 15.8 µM | TGI (A498 renal): 58.9 µM | GI50 (A549 NSCLC): 2.77 µM | TGI (A549 NSCLC): > 100 µM | GI50 (ACHN renal): 2.16 µM | TGI (ACHN renal): 5.75 µM | GI50 (BT-549 breast): 1.83 µM | TGI (BT-549 breast): 3.9 µM | GI50 (CAKI-1 renal): 4.11 µM | TGI (CAKI-1 renal): > 100 µM | GI50 (CCRF-CEM leukemia): 3 µM | TGI (CCRF-CEM leukemia): > 100 µM | GI50 (COLO 205 colon): 3.34 µM | TGI (COLO 205 colon): 26.2 µM | GI50 (DU-145 prostate): 3.55 µM | TGI (DU-145 prostate): > 100 µM | GI50 (EKVX NSCLC): 4.33 µM | TGI (EKVX NSCLC): 51.6 µM | GI50 (HCC-2998 colon): 2.8 µM | TGI (HCC-2998 colon): 7.91 µM | GI50 (HCT-116 colon): 2.73 µM | TGI (HCT-116 colon): > 100 µM | GI50 (HCT-15 colon): 1.75 µM | TGI (HCT-15 colon): 5.28 µM | GI50 (HL-60(TB) leukemia): 2.14 µM | TGI (HL-60(TB) leukemia): 7.61 µM | GI50 (HOP-62 NSCLC): 3.49 µM | TGI (HOP-62 NSCLC): 43.4 µM | GI50 (HOP-92 NSCLC): 1.88 µM | TGI (HOP-92 NSCLC): 7.57 µM | GI50 (HS 578T breast): 4.06 µM | TGI (HS 578T breast): > 100 µM | GI50 (HT29 colon): 2.66 µM | TGI (HT29 colon): > 100 µM | GI50 (IGROV1 ovarian): 3.06 µM | TGI (IGROV1 ovarian): > 100 µM | GI50 (K-562 leukemia): 2.59 µM | TGI (K-562 leukemia): > 100 µM | GI50 (KM12 colon): 3.6 µM | TGI (KM12 colon): > 100 µM | GI50 (LOX IMVI melanoma): 1.69 µM | TGI (LOX IMVI melanoma): 4.09 µM | GI50 (M14 melanoma): 4.77 µM | TGI (M14 melanoma): > 100 µM | GI50 (MALME-3M melanoma): 5.08 µM | TGI (MALME-3M melanoma): > 100 µM | GI50 (MCF7 breast): 2.53 µM | TGI (MCF7 breast): > 100 µM | GI50 (MDA-MB-231 breast): 2.83 µM | TGI (MDA-MB-231 breast): > 100 µM | GI50 (MDA-MB-435): 3.2 µM | TGI (MDA-MB-435): > 100 µM | GI50 (MOLT-4 leukemia): 3.01 µM | TGI (MOLT-4 leukemia): 73.4 µM | GI50 (NCI-H226 lung): 4.16 µM | TGI (NCI-H226 lung): > 100 µM | GI50 (NCI-H23 lung): 2.37 µM | TGI (NCI-H23 lung): 7.23 µM | GI50 (NCI-H460 lung): 2.33 µM | TGI (NCI-H460 lung): 6.16 µM | GI50 (NCI-H522 lung): 1.45 µM | TGI (NCI-H522 lung): 3.43 µM | GI50 (NCI/ADR-RES ovarian): 2.82 µM | TGI (NCI/ADR-RES ovarian): 9.4 µM | GI50 (OVCAR-3 ovarian): 3.75 µM | TGI (OVCAR-3 ovarian): > 100 µM | GI50 (OVCAR-4 ovarian): 2.84 µM | TGI (OVCAR-4 ovarian): > 100 µM | GI50 (OVCAR-5 ovarian): 2.67 µM | TGI (OVCAR-5 ovarian): 13.7 µM | GI50 (OVCAR-8 ovarian): 2.16 µM | TGI (OVCAR-8 ovarian): 5.8 µM | GI50 (PC-3 prostate): 3.16 µM | TGI (PC-3 prostate): > 100 µM | GI50 (RPMI-8226 leukemia): 1.9 µM | TGI (RPMI-8226 leukemia): > 100 µM | GI50 (RXF 393 renal): 2.18 µM | TGI (RXF 393 renal): 6.07 µM | GI50 (SF-268 CNS): 3.65 µM | TGI (SF-268 CNS): > 100 µM | GI50 (SF-295 CNS): 3.16 µM | TGI (SF-295 CNS): > 100 µM | GI50 (SF-539 CNS): 2.04 µM | TGI (SF-539 CNS): 4.28 µM | GI50 (SK-MEL-2 melanoma): 3.7 µM | TGI (SK-MEL-2 melanoma): 25.3 µM | GI50 (SK-MEL-28 melanoma): 3.79 µM | TGI (SK-MEL-28 melanoma): 30.6 µM | GI50 (SK-MEL-5 melanoma): 2.65 µM | TGI (SK-MEL-5 melanoma): 11.1 µM | GI50 (SK-OV-3 ovarian): 4.2 µM | TGI (SK-OV-3 ovarian): > 100 µM | GI50 (SN12C renal): 1.94 µM | TGI (SN12C renal): 6.59 µM | GI50 (SNB-19 CNS): 2.64 µM | TGI (SNB-19 CNS): 8.69 µM | GI50 (SNB-75 CNS): 1.7 µM | TGI (SNB-75 CNS): 3.62 µM | GI50 (SW-620 colon): 3.61 µM | TGI (SW-620 colon): > 100 µM | GI50 (T-47D breast): 2.96 µM | TGI (T-47D breast): > 100 µM | GI50 (TK-10 renal): 4.97 µM | TGI (TK-10 renal): > 100 µM | GI50 (U251 CNS): 2.36 µM | TGI (U251 CNS): 7.5 µM | GI50 (UACC-257 melanoma): 3.29 µM | TGI (UACC-257 melanoma): 68.9 µM | GI50 (UACC-62 melanoma): 1.82 µM | TGI (UACC-62 melanoma): 4.51 µM | GI50 (UO-31 renal): 2.2 µM | TGI (UO-31 renal): > 100 µM
